# Values of other authors in patent publication US9278365B2, “Volatile material dispenser and method of emitting a volatile material” (priority 2014, dated 2016).
molecule,measurement,value
COC(=O)c1ccccc1 [methyl benzoate],solubility,2.1 Log P
methy cyclopetenone,log P (octanol/water partition coefficient),1.29 Log P
CC(=O)O[C@@H]1C[C@H]2CC[C@]1(C)C2(C)C (racemic) [iso-bornyl acetate],log P (octanol/water partition coefficient),4.3 Log P
OC/C=C/c1ccccc1 [cinnamic alcohol],log P (octanol/water partition coefficient),2 Log P
Cc1ncsc1CCO [sulfurol],log P (octanol/water partition coefficient),1.11 Log P
CC(C=O)Cc1ccc(C(C)(C)C)cc1 (stereo not drawn) [lilial],log P (octanol/water partition coefficient),4.4 Log P
